Test results taken from patent publication US8003660B2, “Modulators of muscarinic receptors” (Vertex Pharmaceuticals Incorporated, priority 2006, dated 2011).

Key:
Format in all cases: cell-based
M4 muscarinic receptor = molecular target: T1, M4 muscarinic receptor (Homo sapiens, UniProt P08173); test: Functional mobilization of intracellular calcium (FLIPR) in CHO cells expressing M4; conditions: for M4 Activity: CHO cells expressing M4, FLIPR calcium assay; for Emax: CHO, 100% efficacy = maximum response obtained with the Carbachol control
T1 construct: expressed in transfected cells; host or cells: CHO (M4-CHO)
T1 sequence (P08173 1-479): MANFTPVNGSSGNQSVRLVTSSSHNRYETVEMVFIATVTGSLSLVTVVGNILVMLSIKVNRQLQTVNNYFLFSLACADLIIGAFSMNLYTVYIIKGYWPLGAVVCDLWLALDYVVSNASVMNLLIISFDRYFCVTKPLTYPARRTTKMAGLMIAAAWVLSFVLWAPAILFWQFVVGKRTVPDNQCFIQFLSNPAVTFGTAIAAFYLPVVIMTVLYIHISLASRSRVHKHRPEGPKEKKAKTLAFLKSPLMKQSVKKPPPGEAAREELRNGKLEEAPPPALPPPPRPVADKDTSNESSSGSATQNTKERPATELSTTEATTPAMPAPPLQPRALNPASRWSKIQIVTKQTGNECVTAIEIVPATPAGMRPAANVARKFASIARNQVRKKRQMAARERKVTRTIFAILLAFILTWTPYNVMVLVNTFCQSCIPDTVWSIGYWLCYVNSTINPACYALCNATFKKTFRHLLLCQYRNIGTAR
Method in brief: (§1)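 Recombinant CHO cells loaded with Fluo-3 AM or Calcium 3 dye in pH 7.4 buffer containing 1 mM probenecid, with 0.5% final DMSO. For agonism, compound is added directly. For inhibition, it is preincubated 15 min, or co-applied, before carbachol at EC80. FLIPR fluorescence (ex 488, em 540 nm) is recorded for 60 s.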

M1 muscarinic receptor = molecular target: T2, M1 muscarinic receptor (Homo sapiens, UniProt P11229); test: Functional mobilization of intracellular calcium (FLIPR) in CHO cells expressing M1; conditions: for M1 Activity: CHO cells expressing M1, FLIPR calcium assay; for Emax: CHO, 100% efficacy = maximum response obtained with the Carbachol control
T2 construct: expressed in transfected cells; host or cells: CHO (M1-CHO)
T2 sequence (P11229 1-460): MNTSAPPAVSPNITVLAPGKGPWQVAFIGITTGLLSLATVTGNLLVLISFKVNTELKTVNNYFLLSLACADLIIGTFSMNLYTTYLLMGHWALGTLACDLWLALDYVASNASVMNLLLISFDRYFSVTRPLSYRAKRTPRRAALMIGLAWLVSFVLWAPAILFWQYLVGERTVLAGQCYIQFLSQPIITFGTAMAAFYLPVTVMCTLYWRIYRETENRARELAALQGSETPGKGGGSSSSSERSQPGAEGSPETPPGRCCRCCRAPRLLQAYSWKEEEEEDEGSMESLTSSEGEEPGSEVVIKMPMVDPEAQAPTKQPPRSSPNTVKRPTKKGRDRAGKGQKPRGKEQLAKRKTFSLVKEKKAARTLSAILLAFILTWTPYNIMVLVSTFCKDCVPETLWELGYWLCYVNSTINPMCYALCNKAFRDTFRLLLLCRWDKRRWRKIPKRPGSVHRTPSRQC
Method in brief: as §1

M3 muscarinic receptor = molecular target: T3, M3 muscarinic receptor (Homo sapiens, UniProt P20309); test: Functional mobilization of intracellular calcium (FLIPR) in CHO cells expressing M3; conditions: for M3 Activity: CHO cells expressing M3, FLIPR calcium assay; for Emax: CHO, 100% efficacy = maximum response obtained with the Carbachol control
T3 construct: expressed in transfected cells; host or cells: CHO (M3-CHO)
T3 sequence (P20309 whole entry): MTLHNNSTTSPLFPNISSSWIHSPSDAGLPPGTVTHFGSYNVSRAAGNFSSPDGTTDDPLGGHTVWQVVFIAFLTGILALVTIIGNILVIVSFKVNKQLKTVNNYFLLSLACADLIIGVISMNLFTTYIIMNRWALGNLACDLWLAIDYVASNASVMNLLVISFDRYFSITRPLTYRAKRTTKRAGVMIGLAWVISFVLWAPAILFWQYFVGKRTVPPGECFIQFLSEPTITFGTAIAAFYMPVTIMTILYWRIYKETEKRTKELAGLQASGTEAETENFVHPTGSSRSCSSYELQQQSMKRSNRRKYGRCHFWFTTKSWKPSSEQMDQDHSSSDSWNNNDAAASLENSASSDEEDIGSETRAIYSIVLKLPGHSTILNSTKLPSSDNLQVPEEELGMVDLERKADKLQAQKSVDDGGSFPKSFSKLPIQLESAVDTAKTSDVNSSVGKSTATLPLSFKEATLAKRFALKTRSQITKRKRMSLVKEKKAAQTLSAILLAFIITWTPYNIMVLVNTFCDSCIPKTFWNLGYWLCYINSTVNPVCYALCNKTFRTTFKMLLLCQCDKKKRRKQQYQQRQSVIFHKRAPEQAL
Method in brief: as §1

M2 muscarinic receptor = molecular target: T4, M2 muscarinic receptor (Homo sapiens, UniProt P08172); test: Functional mobilization of intracellular calcium (FLIPR) in CHO cells expressing M2; conditions: for M2 Activity: CHO cells expressing M2, FLIPR calcium assay; for Emax: CHO, 100% efficacy = maximum response obtained with the Carbachol control
T4 construct: expressed in transfected cells; host or cells: CHO (M2-CHO)
T4 sequence (P08172 1-466): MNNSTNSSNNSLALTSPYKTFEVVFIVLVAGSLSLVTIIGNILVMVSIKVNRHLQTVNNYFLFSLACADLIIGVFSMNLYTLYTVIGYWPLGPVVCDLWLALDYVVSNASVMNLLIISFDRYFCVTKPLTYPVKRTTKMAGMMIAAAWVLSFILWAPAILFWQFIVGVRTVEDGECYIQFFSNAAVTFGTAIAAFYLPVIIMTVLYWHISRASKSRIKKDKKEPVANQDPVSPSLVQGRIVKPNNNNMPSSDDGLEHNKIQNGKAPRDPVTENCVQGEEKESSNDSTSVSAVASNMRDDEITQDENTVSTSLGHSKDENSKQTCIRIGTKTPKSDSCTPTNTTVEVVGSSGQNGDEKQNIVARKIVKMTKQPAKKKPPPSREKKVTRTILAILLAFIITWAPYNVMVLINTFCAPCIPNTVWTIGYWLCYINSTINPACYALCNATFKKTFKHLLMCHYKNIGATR
Method in brief: as §1

SMILES	M4 Activity (M4 muscarinic receptor)	Emax (M4 muscarinic receptor)	M1 Activity (M1 muscarinic receptor)	Emax (M1 muscarinic receptor)	M3 Activity (M3 muscarinic receptor)	Emax (M3 muscarinic receptor)	M2 Activity (M2 muscarinic receptor)	Emax (M2 muscarinic receptor)
CC(C)(C)OC(=O)N1CCC2(CC1)C[C@H](NC(=O)c1ccccc1)c1ccccc12 [compound 255]	+ (activity was measured to be greater than 5.0 μM)	< 25%	+ (activity was measured to be greater than 5.0 μM)	< 25%	+ (activity was measured to be greater than 5.0 μM)	< 25%	+ (activity was measured to be greater than 5.0 μM)	< 25%
CC(=O)N[C@H]1CC2(CCN(CC(=O)O)CC2)c2ccccc21 [compound 256]	+ (activity was measured to be greater than 5.0 μM)	< 25%	+ (activity was measured to be greater than 5.0 μM)	< 25%	+ (activity was measured to be greater than 5.0 μM)	< 25%	+ (activity was measured to be greater than 5.0 μM)	< 25%
COC(=O)CCCCCN1CCC2(CC1)C[C@H](NC(C)=O)c1ccccc12 [compound 257]	+++ (activity was measured to be less than 2.0 μM)	25 to 100%	+++ (activity was measured to be less than 2.0 μM)	> 100%	+ (activity was measured to be greater than 5.0 μM)	25 to 100%	+++ (activity was measured to be less than 2.0 μM)	25 to 100%
CC(=O)N[C@H]1CC2(CCN(CC(=O)N(CC#N)C(C)C)CC2)c2ccccc21 [compound 258]	+ (activity was measured to be greater than 5.0 μM)	< 25%	+ (activity was measured to be greater than 5.0 μM)	< 25%	+ (activity was measured to be greater than 5.0 μM)	< 25%	+ (activity was measured to be greater than 5.0 μM)	< 25%
CC(C)CCN1CCC2(CC1)CC(C(=O)O)c1ccccc12 (stereo not shown) [compound 259]	+ (activity was measured to be greater than 5.0 μM)	< 25%	+ (activity was measured to be greater than 5.0 μM)	25 to 100%	+ (activity was measured to be greater than 5.0 μM)	< 25%	+ (activity was measured to be greater than 5.0 μM)	< 25%
CC(=O)NC1CCC2(CCN(C(=O)OC(C)(C)C)CC2)c2ccccc21 (stereo not shown) [compound 260]		< 25%		< 25%		< 25%		< 25%
CC(=O)N[C@H]1CC2(CCN(C(=O)OC(C)(C)C)CC2)c2ccc(C)cc21 [compound 261]	+ (activity was measured to be greater than 5.0 μM)	< 25%	+ (activity was measured to be greater than 5.0 μM)	< 25%	+ (activity was measured to be greater than 5.0 μM)	< 25%	+ (activity was measured to be greater than 5.0 μM)	< 25%
